Source: patent US11602534B2, “Pyrimidine derivative kinase inhibitors” (HEFEI INSTITUTES OF PHYSICAL SCIENCE, CHINESE ACADEMY OF …, priority 2017, dated 2023)

How the values were obtained:
TEL-PDGFRβ-BaF3 = assay: Proliferation of TEL-PDGFRβ-BaF3 cells, CCK8 cell viability assay; type: cell-based; conditions: Mus musculus, 72 hours, stably expressing PDGFRβ kinase
Summary of the method: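 Mouse BaF3 ± TEL-kinase fusion (human cKIT/PDGFRα/PDGFRβ kinase region, MSCV-Puro retrovirus, IL-3 removed → kinase-addicted). Viability by CCK8 (dehydrogenase), GI50 μM.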

P210-BaF3 = assay: Proliferation of P210-BaF3 cells, CCK8 cell viability assay; type: cell-based; conditions: Mus musculus, 72 hours, stably expressing BCR-ABL mutant activated kinase
Summary of the method: (§1)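 Murine BaF3 cells made IL-3-independent by retroviral transduction of human kinase domains fused to N-terminal TEL or TPR fragments; parental BaF3 included. Living cells quantified by CCK8 (dehydrogenase activity) read-out, giving GI50 in μM.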

protein kinase FLT3 = assay: Phosphorylation of FLT3 in AML cells; type: cell-based, human; conditions: MV-4-11, MOLM-13 and MOLM-14 cell lines; 4 hours; compounds 0.01-3 μM, PKC412 1 μM
Experimental: (§2) In cells having FLT3 gene and/or FLT3/ITD mutant gene, specifically, human acute myeloid leukemia cells MV4-11 (expressing FLT3/ITD mutant gene) cell strain and human acute myeloid leukemia cells MOLM-13 and MOLM-14 (expressing FLT3/ITD mutant gene and wild-type FLT3 gene) cell strains, Compound 5, Compound 135 and a FLT3 kinase inhibitor, PKC412 (purchased from Hao Yuan Chemexpress Company, Shanghai), which was used as the control, were evaluated for their effects in cells on phosphorylation of FLT3 and FLT3/ITD protein kinase and phosphorylation of the closely-related STATS protein which is downstream of FLT3 signaling pathways, as well as their effects on phosphorylation of other relevant protein kinases such as ERK and AKT, by assaying a number of cellular biochemical and functional endpoints. In addition, the effects on C-Myc and phosphorylation of the transcription factor NF-κB subunit p65 was also examined (FIGS. 1a-1f). Compound 5 and Compound 135 at different concentrations (0 μM, 0.01 μM, 0.03 μM, 0.1 μM, 0.3 μM, 1 μM, 3 μM in DMSO) and the FLT3 kinase inhibitor PKC412 (1 μM in DMSO) were used to treat acute myeloid leukemia cells MV-4-11, MOLM13 and MOLM-14 that had FLT3 and/or FLT3/ITD gene for 4 hours, respectively, and then the samples were collected. The effects of the compounds on the phosphorylation of proteins such as STATS, C-Myc, ERK, NF-κB p65, AKT in cells were tested (FIGS. 1a-1f).

Tel-FLT3-BaF3 = assay: Proliferation of Tel-FLT3-BaF3 cells, CCK8 cell viability assay; type: cell-based; conditions: Mus musculus, 72 hours, stably expressing FLT3 kinase
Summary of the method: as §1

TEL-VEGFR2-BaF3 = assay: Proliferation of TEL-VEGFR2-BaF3 cells, CCK8 cell viability assay; type: cell-based; conditions: Mus musculus, 72 hours, stably expressing VEGFR2 kinase
Summary of the method: as §1

C-Myc = assay: Degradation of C-Myc in AML cells; type: cell-based, human; conditions: MV-4-11, MOLM13 and MOLM-14; 4 hours; compounds 0.01-3 μM, PKC412 1 μM
Experimental: as §2

[1] = test system: human acute myeloid leukemia cell strain MOLM-14; assay: Proliferation of MOLM-14 cells, Cell Titer-Glo; type: cell-based; conditions: for GI50: Homo sapiens, MOLM-14, 72 hours, Cell Titer-Glo, FLT3/ITD and wild-type FLT3, read-out: GI50 MOLM14
Experimental: In addition, in this example the inhibitory activity of preferred compounds (Compound 5 and Compound 135) was tested against the following cell strains: human acute myeloid leukemia cell strain MV4-11 (expressing FLT3/ITD mutant gene), human acute myeloid leukemia cell strain MOLM-13 (expressing FLT3/ITD mutant gene and wild-type FLT3 gene), human acute myeloid leukemia cell strain MOLM-14 (expressing FLT3/ITD mutant gene and wild-type FLT3 gene), human acute myeloid leukemia cell strain OCI-AML-3 (expressing FLT3 A680V mutant gene), human chronic lymphatic leukemia cell strain MEC-1, Chinese hamster lung (CHL) cells, Chinese hamster ovary (CHO) cells, wherein all the cells were purchased from ATCC. In the example the compounds of the present invention were added respectively into the above cells at different concentrations (0.000508 μM, 0.00152 μM, 0.00457 μM, 0.0137 μM, 0.0411 μM, 0.123 μM, 0.370 μM, 1.11 μM, 3.33 μM, 10 μM in DMSO) and the cells were incubated for 72 hours. The number of viable cells was determined by quantification of ATP in living cells using Cell Titer-Glo® (Promega, the USA) Luminescent Cell Viability Assay kit and thereby GI50 was calculated.

| GI50 (TEL-PDGFRβ-BaF3) | GI50 (P210-BaF3) | GI50 (Tel-FLT3-BaF3) | GI50 (TEL-VEGFR2-BaF3) | GI50 [1] | Structure (SMILES) | phosphorylation of the protein kinase FLT3 (protein kinase FLT3) | degradation of C-Myc (C-Myc) | inhibition of MOLM14 (in words) ([1]; summary of Table 3) |
| --- | --- | --- | --- | --- | --- | --- | --- | --- |
| 58 nM | > 10000 nM | 746 nM | 357 nM | 333 nM | CC(=O)Nc1cc(Oc2ccc(NC(=O)Cc3ccc(F)cc3F)cc2)ncn1 [Example 5, N-[4-(6-acetylamino-pyrimidin-4-yloxy)-phenyl]-2-(2,4-difluoro-phenyl)-acetamide] | capable of inhibiting phosphorylation | significant effects on the degradation | selectively and strongly inhibited |
| 40 nM | > 10000 nM | 249 nM | 1440 nM | 343 nM | CC(=O)Nc1cc(Oc2ccc(NC(=O)Cc3ccccc3C(F)(F)F)cc2)ncn1 [Example 135, N-[4-(6-acetylamino-pyrimidin-4-yloxy)-phenyl]-2-(2-trifluoromethyl-phenyl)-acetamide] | capable of inhibiting phosphorylation | significant effects on the degradation | – |
